Experimental data taken from US6087375A, “Methods of treating or preventing thromboses” (priority 1999, dated 2000).

How the values were obtained:
Type in all cases: binding
[1] = tested on: rabbit erythrocyte membrane and cytosolic proteins; assay: Immunoblotting and ELISA of rabbit erythrocyte ghost and cytosol fractions after conjugation
Description: Material and Methods: Rabbit erythrocytes were conjugated with the Argatroban-C6 NHS ester compound (compound YL-015-35). To do so, rabbit erythrocytes were isolated from fresh, citrated blood. In brief, an aliquot of blood was centrifuged for 5 minutes at 1800 rpm (Sorvall RC-5B, SH-3000 rotor). The buffy coat was pipetted off the top layer of the cell pellet and the remaining erythrocytes were washed four times with PBS, pH 7.4. Before the last wash, an aliquot of cells was removed for counting. The washed erythrocytes were resuspended at a density of 1×10^9 cells/mL. The total volume of cells labeled per sample was 3 mL. […] After the labeling reaction, the cells were centrifuged 4 minutes at 1800 rpm and the supernatant was discarded. The cells were resuspended in 10 ml of 0.5% DMSO/PBS and pelleted. The cells were washed one more time with 10 ml of PBS.
To quench any remaining reactive esters, the cells were then resuspended in 6 mg/mL BSA/PBS (Sigma, A-2934, lot 93HO291) and gently agitated at room temperature for 30 minutes. After quenching, the cells were washed five times with PBS. Cell yields were determined by cell counting.
After conjugation, the cells were hypotonically lysed and the ensuing membrane (ghost) and cytosol fractions were assayed by immunoblotting and ELISA. Specifically, conjugated erythrocyte pellets were chilled on ice for 5 minutes. Cells were then lysed on ice with 12 ml of ice-cold 5 mM phosphate buffer, pH 8.0 (PB) containing 1 mM Pefabloc and 40 μM leupeptin. Lysates were briefly vortexed and then centrifuged for 20 minutes at 4° C. at 15,000 rpm (SS-34, Sorvall RC-5B). The supernatant (hemolysate) was pipetted off the pellet, labeled and stored at 4° C. The pellets (ghosts) were washed four times with 12 ml of cold PBS and centrifuged as above. The protein content of the ghosts and hemolysates was determined by using the Micro BCA kit (Pierce; catalog no. 23231). Cell fractions were stored at -80° C.
Samples were then solubilized in 2×reducing cocktail (5% SDS, 50% glycerol, 0.5 M 2-mercaptoethanol in 0.25 M Tris-HCI, pH 6.8). […]

[2] = molecular target: human serum albumin (HSA) (Homo sapiens, UniProt P02768); assay: Mass spectrometric analysis of conjugation to HSA (HPLC/ESIMS); settings: HSA 5 μM, 100 μM ester, 1 hour, room temperature
Chain of human serum albumin (HSA) (P02768 25-609): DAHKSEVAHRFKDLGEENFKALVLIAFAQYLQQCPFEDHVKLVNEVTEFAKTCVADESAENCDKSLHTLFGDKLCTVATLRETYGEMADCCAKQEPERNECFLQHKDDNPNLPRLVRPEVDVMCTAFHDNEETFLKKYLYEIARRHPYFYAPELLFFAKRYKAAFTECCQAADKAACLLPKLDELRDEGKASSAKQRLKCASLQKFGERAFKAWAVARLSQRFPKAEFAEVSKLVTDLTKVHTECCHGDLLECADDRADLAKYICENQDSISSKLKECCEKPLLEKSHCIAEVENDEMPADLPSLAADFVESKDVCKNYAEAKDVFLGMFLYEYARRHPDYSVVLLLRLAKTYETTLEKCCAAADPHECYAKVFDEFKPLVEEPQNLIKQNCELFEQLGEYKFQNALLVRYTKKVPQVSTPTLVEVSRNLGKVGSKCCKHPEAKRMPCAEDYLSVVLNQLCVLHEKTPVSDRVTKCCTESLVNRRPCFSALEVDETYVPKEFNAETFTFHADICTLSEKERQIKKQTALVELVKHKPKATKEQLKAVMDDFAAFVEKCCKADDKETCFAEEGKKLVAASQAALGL
Description: (§1) All samples were analyzed using a high performance liquid chromatograph (HPLC) coupled in-line to an electrospray ionization (ESI) mass spectrometer (MS) which is termed HPLC/ESIMS. Some samples were also analyzed using a matrix-assisted laser desorption ionization (MALDI) time-of-flight (TOF) mass spectrometer which is termed (MALDI-TOFMS).
(§2) Samples for HPLC/ESIMS were either prepared as duplicate reaction samples or were part of the same reaction samples which were used in the ELISA assays described below. These samples were injected directly only the HPLC/ESIMS without any manipulation other than dilution with water, where the PBS, DMSO, and unreacted derivative molecules are separated from the protein-argatroban derivative molecule conjugate. Samples for MALDI-MS were first HPLC-purified and mixed 1:1 directly on the stainless steel analysis plate with a matrix of 10 mg/ml sinnapinic acid in 50% acetonitrile/50% water. The mixture was then dried with a gentle flow of air to allow for crystallization and inserted into the instrument for laser ionization.
(§3) The HPLC is a Hewlett Packard 1090 Series II liquid chromatogram with a diode array detector. The column used for separation is a Brownlee aquapore OD-300 reversed phase C18 column, 1 mm×10 cm, 300 Å pore size, 7 μm particle diameter. The mass spectrometer to which the HPLC is connected using fused Silica capillary tubing is a Sciex API-300 triple quadrupole mass spectrometer with an ionspray source to allow for atmospheric pressure ionization of a liquid flowing continuously into the instrument. The MALDI-TOFMS is a Perceptive Biosystems Voyager Elite DE instrument run in the linear mode.

[3] = molecular target: rabbit serum albumin (RSA) (Oryctolagus cuniculus, UniProt P49065); assay: Mass spectrometric analysis of conjugation to RSA (HPLC/ESIMS, MALDI-TOFMS); settings: for average argatroban derivative molecules added per RSA molecule / range of argatroban derivative molecules added per RSA molecule: MALDI-MS
Chain of rabbit serum albumin (RSA) (P49065 25-608): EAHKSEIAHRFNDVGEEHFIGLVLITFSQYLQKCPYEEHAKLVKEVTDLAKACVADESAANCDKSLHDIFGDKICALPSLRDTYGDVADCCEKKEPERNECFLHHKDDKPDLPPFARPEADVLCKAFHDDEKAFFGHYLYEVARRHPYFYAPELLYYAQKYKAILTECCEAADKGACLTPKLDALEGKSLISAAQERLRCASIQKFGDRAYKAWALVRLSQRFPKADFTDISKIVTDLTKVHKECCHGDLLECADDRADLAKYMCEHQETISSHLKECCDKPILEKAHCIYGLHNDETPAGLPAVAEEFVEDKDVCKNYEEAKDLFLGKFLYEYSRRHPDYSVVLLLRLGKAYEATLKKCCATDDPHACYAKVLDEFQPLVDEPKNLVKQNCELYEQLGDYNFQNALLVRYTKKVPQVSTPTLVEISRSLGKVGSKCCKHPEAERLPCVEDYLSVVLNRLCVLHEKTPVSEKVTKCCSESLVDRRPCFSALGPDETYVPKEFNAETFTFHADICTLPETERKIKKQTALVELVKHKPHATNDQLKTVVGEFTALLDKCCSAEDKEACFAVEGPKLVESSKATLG
Description: as §1, §2, §3
The conjugate was prepared according to the following protocol. […] Sham samples consist of the RSA incubated for the same length of time at RT in 2% DMSO in PBS. Each of the samples was then concentrated to a final volume of 1.5 mL using Amicon Centricon 30 filtration/concentration devices. The concentrated samples were then desalted on Pierce's 5 ML Kwiksep excellulose plastic desalting columns. The excluded volumes containing RSA or argatroban-C6-RSA were then subjected to BCA microprotein estimation and lyophilization. In addition, these samples were analyzed by LC/MS, sandwich ELISA assays (described above) to measure thrombin binding and immunoblotting.

[4] = concentration study, 10 μM ester, RSA 4.5 μM, HPLC/ESIMS

Compound: CC1CNc2c(cccc2S(=O)(=O)NC(CCCN=C(N)N)C(=O)N2CCC(C)CC2C(=O)NCCCCCC(=O)ON2C(=O)CCC2=O)C1 (stereo not shown) [compound YL-015-35]
- labeled proteins belonging to the glycophorin family ([1]; capture ELISA assay): a portion of the thrombin inhibitor-labeled proteins belong to the glycophorin family of proteins
- presence of derivatized argatroban molecules on cytosolic proteins ([1]; rabbit erythrocytes, cytosol fraction): at the limit of detection
- covalent modification of erythrocyte membrane proteins ([1]; rabbit erythrocytes, immunoblotting): numerous erythrocyte membrane proteins were covalently modified
- covalent addition of argatroban derivative molecules per HSA molecule [2]: 1-8 argatroban derivative molecules per HSA molecule
- covalent addition of argatroban derivative molecules per RSA molecule ([3]; HPLC/ESIMS, RSA 4.5 μM, 100 μM ester, 1 hour, room temperature): 1-8 argatroban derivative molecules per RSA molecule
- covalent addition of argatroban derivative molecules per RSA molecule ([3]; HPLC/ESIMS, RSA 15 μM, 200 μM ester): 1-9 argatroban derivative molecules per RSA molecule
- covalent addition of argatroban derivative molecules per RSA molecule ([3]; HPLC/ESIMS, RSA 30 μM, 300 μM ester): 1-9 argatroban derivative molecules per RSA molecule
- average argatroban derivative molecules added per RSA molecule ([3]; RSA 15 μM, 200 μM ester): 5.6 argatroban derivative molecules added per RSA molecule
- range of argatroban derivative molecules added per RSA molecule ([3]; RSA 15 μM, 200 μM ester): 1-10 argatroban derivative molecules added per RSA molecule
- average argatroban derivative molecules added per RSA molecule ([3]; RSA 30 μM, 300 μM ester): 5.4 argatroban derivative molecules added per RSA molecule
- range of argatroban derivative molecules added per RSA molecule ([3]; RSA 30 μM, 300 μM ester): 1-10 argatroban derivative molecules added per RSA molecule
- argatroban derivative molecules added ([3]; concentration study, 1 μM ester, RSA 4.5 μM, HPLC/ESIMS): no detectable argatroban derivative molecules
- argatroban derivative molecules added [3, 4]: 1 argatroban derivative molecule
- fraction of the RSA molecules to which 1 argatroban derivative molecule is added [3, 4]: ~ 50%
- major species of RSA molecules ([3]; concentration study, 15 μM ester, RSA 4.5 μM): majority of RSA molecules are +1
- argatroban derivative molecules added per RSA molecule ([3]; concentration study, 15 μM ester, RSA 4.5 μM, HPLC/ESIMS): 0-3 argatroban derivative molecules per RSA molecule
- major species of RSA molecules ([3]; concentration study, 20 μM ester, RSA 4.5 μM): majority of RSA molecules are +1 and +2
- argatroban derivative molecules added per RSA molecule ([3]; concentration study, 20 μM ester, RSA 4.5 μM, HPLC/ESIMS): 1-3 argatroban derivative molecules per RSA molecule
- major species of RSA molecules ([3]; concentration study, 25 μM ester, RSA 4.5 μM): majority of RSA molecules are +1 and +2
- argatroban derivative molecules added per RSA molecule ([3]; concentration study, 25 μM ester, RSA 4.5 μM, HPLC/ESIMS): 1-4 argatroban derivative molecules per RSA molecule
- major species of RSA molecules ([3]; concentration study, 100 μM ester, RSA 4.5 μM): no major species
- argatroban derivative molecules added per RSA molecule ([3]; concentration study, 100 μM ester, RSA 4.5 μM, HPLC/ESIMS): 2-10 argatroban derivative molecules per RSA molecule
